Tests used:
[1] = test system: RPMI 1788 human healthy donor peripheral blood leukocytes; experiment: MTT cytotoxicity assay, normal RPMI 1788 cells; format: cell-based; conditions: tested at 1–200 µM, three independent experiments, read-out: IC50 RPMI 1788 (normal cell line)
[2] = test system: M-HeLa human cervix carcinoma cells; experiment: MTT cytotoxicity assay, M-HeLa; format: cell-based; conditions: for IC50: Homo sapiens, M-HeLa, tested at 1–200 µM, three independent experiments; for IC50 / cytotoxicity against M-HeLa (in words): MTT; for SI (selectivity index) M-HeLa: M-HeLa versus normal WI38 cells
[3] = test system: HL-60 human promyelocytic leukemia cells; experiment: MTT cytotoxicity assay, HL-60; format: cell-based; conditions: for IC50: Homo sapiens, HL-60, MTT, tested at 1–200 µM, three independent experiments; for SI (selectivity index) HL-60: HL-60 versus normal RPMI 1788 leukocytes
[4] = test system: WI38 human fibroblast cell line; experiment: MTT cytotoxicity assay, normal WI38 cells; format: cell-based; conditions: WI-38, tested at 1–200 µM, three independent experiments
[5] = test system: HuTu 80 human duodenal adenocarcinoma cells; experiment: MTT cytotoxicity assay, HuTu 80; format: cell-based; conditions: for IC50: Homo sapiens, HuTu80, MTT, tested at 1–200 µM, three independent experiments; for SI (selectivity index) HuTu 80: HuTu 80 versus normal WI38 cells
lymphatic leukemia P388 = experiment: Antitumor activity, syngeneic lymphatic leukemia P388 in BDF1 mice; format: in vivo, mouse; conditions: for ILS / MST ± SD: i.p. days 1, 5, 9; for antileukemia / antitumor effect (in words): doses under study, i.p.
Procedure: At the next stage, we evaluated them in vivo using syngeneic mouse leukosis P388, which plays an important role in the screening of potential antitumor agents. The antitumor effect of the synthesized compounds was evaluated according to the increase in the average lifespan (ILS, %) of tumor-bearing animals. Due to the fact that physiologically relevant solvent, such as water or physiological solution [49], can be used as a solvent for parenteral administration of substances, we chose only water-soluble compounds 4o–r for the in vivo study.
As model tumors for the determination of antitumor activity of phosphorus-containing derivatives of pyrrolidine, the strain of lymphatic leukemia P388 was chosen. Lymphatic leukemia P388 was transplanted into hybrid mice of the BDF1 line intraperitoneally in accordance with the standard procedure. The inoculum contained 10^6 tumor cells in isotonic solution of NaCl. […] In each experiment, the control group was represented by the cohort of animals with tumors not treated with the compounds. Each group consisted of six mice. The animals were inspected daily over at least 60 days. The effectiveness of therapy was evaluated by the number of surviving animals, as well as by the increase in the average lifespan (ILS%), which was evaluated as the percentage of the mean survival time (MST) of the treated group (t) as compared to the control group (c): […].

[6] = Acute in vivo toxicity, single intraperitoneal administration; conditions: mouse, ip, BDF1 mice, Behrens method, 14 d observation, read-out: half-lethal toxic dose (LD50)
Procedure: Firstly, acute in vivo toxicity was determined in order to calculate doses for the determination of the potential antileukemia activity. An acute toxicity study was carried out on the mice of the BDF1 line weighing from 20 to 24 g. In the experiment, clinically healthy animals were used, which were treated under the same conditions. To evaluate LD50, the toxicity gain curve was plotted against increasing doses (the Behrens method) (Figure 3).
Acute toxicity was evaluated using mice of the BDF1 line weighing from 20 to 24 g. In the experiment, clinically healthy animals treated under the same conditions were used. A total of 4–6 animals were used for each dose. All experiments on animals were carried out according to the Nursery and Vivarium, Russian Academy of Sciences Federal Research Center of Problems of Chemical Physics and Medicinal Chemistry (FRC PCPMC RAS) and in accordance with the rules established by the Commission on Bioethics of the FRC PCPMC RAS. One day after administration of the specimen, the animals were continuously treated for 4 h. Then, death of animals and clinical pattern of intoxication were evaluated once a day for 14 d. The test compounds were added intraperitoneally once. The individual volume of each animal was calculated from the mass of the body and dose of the test compound.
The lethal dose (LD100) for all animals and the maximum tolerable dose (MTD) values were also evaluated. Results of the studies are given in the form of tables and graphs.

[7] = dose 16 (table prints no unit; b71 mg/kg)
[8] = dose 22 (table prints no unit; b71 mg/kg)
[9] = dose 34 (table prints no unit; b71 mg/kg)
[10] = dose 48 (table prints no unit; b71 mg/kg)
[11] = dose 72 (table prints no unit; b71 mg/kg)
[12] = dose 12 (table prints no unit; b71 mg/kg)
[13] = dose 17 (table prints no unit; b71 mg/kg)
[14] = dose 26 (table prints no unit; b71 mg/kg)
[15] = dose 37 (table prints no unit; b71 mg/kg)
[16] = dose 55 (table prints no unit; b71 mg/kg)

## Cl.O=P(c1ccccc1)(c1ccccc1)C1CCCN1S(=O)(=O)CCN1CCOCC1 (stereo not drawn) [Compound 4s, 4-(2-((2-(Diphenylphosphoryl)pyrrolidin-1-yl)sulfonyl)ethyl)morpholin-4-ium chloride]
[1]
  IC50: > 100 µM
[2]
  IC50: 78.4 ± 6.6 µM
  SI (selectivity index) M-HeLa: 1.2
[3]
  IC50: > 100 µM
[4]
  IC50: 91.8 ± 8.4 µM
[5]
  IC50: > 100 µM
  SI (selectivity index) HuTu 80: - ((-)—no selectivity)

## CCCCN(CCCC)CCS(=O)(=O)N1CCCC1P(=O)(c1ccccc1)c1ccccc1.Cl (stereo not drawn) [Compound 4p, N-Butyl-N-(2-((2-(diphenylphosphoryl)pyrrolidin-1-yl)sulfonyl)ethyl)butan-1-aminium chloride]
[1]
  IC50: 176 ± 3.4 µM
[2]
  IC50: 57 ± 4.6 µM
  SI (selectivity index) M-HeLa: 1.1
  cytotoxicity against M-HeLa (in words): moderate cytotoxicity
[3]
  SI (selectivity index) HL-60: 2.3
  IC50: 76.7 ± 6.1 µM
Lymphatic leukemia P388; [7]
  ILS: 100%
  MST ± SD: 20 ± 3.1 days
Lymphatic leukemia P388; [8]
  ILS: 80%
  MST ± SD: 18 ± 3.2 days
Lymphatic leukemia P388; [9]
  ILS: 75%
  MST ± SD: 17.5 ± 2.7 days
Lymphatic leukemia P388; [10]
  ILS: 55%
  MST ± SD: 15.5 ± 3.4 days
Lymphatic leukemia P388; [11]
  ILS: 42%
  MST ± SD: 14.2 ± 2.4 days
Lymphatic leukemia P388
  antileukemia / antitumor effect (in words): exhibited antileukemia activity
[4]
  IC50: 63.2 ± 5.7 µM
[6]
  LD50 at 14 d: 165 ± 18.2 mg/kg
[5]
  IC50: 94.4 ± 8.7 µM
  SI (selectivity index) HuTu 80: - ((-)—no selectivity)

## O=C(O)c1cn(C2CC2)c2cc(N3CCN(CCS(=O)(=O)N4CCCC4P(=O)(c4ccccc4)c4ccccc4)CC3)c(F)cc2c1=O (stereo not drawn) [Compound 4z, 1-Cyclopropyl-7-(4-(2-((2-(diphenylphosphoryl)pyrrolidin-1-yl)sulfonyl)ethyl)piperazin-1-yl)-6-fluoro-4-oxo-1,4-dihydroquinoline-3-carboxylic acid]
[2]
  IC50: 85.9 ± 8.2 µM
  SI (selectivity index) M-HeLa: 1.4
[4]
  IC50: 123 ± 9.6 µM
[5]
  IC50: 64.6 ± 5.1 µM
  SI (selectivity index) HuTu 80: 1.9

## O=C(O)c1cn(C2CC2)c2cc(N3CCN(CCS(=O)(=O)N4CCCC4N4C(=O)CCN4c4ccccc4)CC3)c(F)cc2c1=O (stereo not drawn) [Compound 4l, 1-Cyclopropyl-6-fluoro-4-oxo-7-(4-(2-((2-(5-oxo-2-phenylpyrazolidin-1-yl)pyrrolidin-1-yl)sulfonyl)ethyl)piperazin-1-yl)-1,4-dihydroquinoline-3-carboxylic acid]
[2]
  IC50: 85.4 ± 7.5 µM
  SI (selectivity index) M-HeLa: 1.8
  cytotoxicity against M-HeLa (in words): moderate cytotoxicity
[4]
  IC50: 154 ± 12 µM
[5]
  IC50: > 100 µM

## O=c1[nH]cc(F)c(=O)[nH]1 [5-Fluorouracil, reference compound]
[2]
  IC50: 75.6 ± 6.1 µM
  SI (selectivity index) M-HeLa: - ((-)—no selectivity)
[4]
  IC50: 62 ± 4.8 µM
[5]
  IC50: 65.2 ± 5.5 µM
  SI (selectivity index) HuTu 80: 1

## O=P(c1ccccc1)(c1ccccc1)C1CCCN1S(=O)(=O)CCNCCS(=O)(=O)O (stereo not drawn) [Compound 4y, 2-((2-((2-(Diphenylphosphoryl)pyrrolidin-1-yl)sulfonyl)ethyl)amino)ethane-1-sulfonic acid]
[2]
  IC50: 62.5 ± 5.3 µM
  SI (selectivity index) M-HeLa: 1.9
  cytotoxicity against M-HeLa (in words): moderate cytotoxicity
[4]
  IC50: 120 ± 9.3 µM
[5]
  IC50: 100 ± 9.2 µM
  SI (selectivity index) HuTu 80: 1.2

## O=C1CCN(c2ccccc2)N1C1CCCN1S(=O)(=O)CCN1CCCCC1 (stereo not drawn) [Compound 4b, 1-Phenyl-2-(1-((2-(piperidin-1-yl)ethyl)sulfonyl)pyrrolidin-2-yl)pyrazolidin-3-one]
[2]
  IC50: 87 ± 6.8 µM
  SI (selectivity index) M-HeLa: 1
[4]
  IC50: 88.3 ± 7.1 µM
[5]
  IC50: > 100 µM
  SI (selectivity index) HuTu 80: - ((-)—no selectivity)

## CCN(CC)CCS(=O)(=O)N1CCCC1P(=O)(c1ccccc1)c1ccccc1.Cl (stereo not drawn) [Compound 4o, 2-((2-(Diphenylphosphoryl)pyrrolidin-1-yl)sulfonyl)-N,N-diethylethanaminium chloride]
[1]
  IC50: > 100 µM
[2]
  IC50: 56.7 ± 4.8 µM
  SI (selectivity index) M-HeLa: 1.5
  cytotoxicity against M-HeLa (in words): moderate cytotoxicity
[3]
  IC50: > 100 µM
Lymphatic leukemia P388; [12]
  ILS: 7%
  MST ± SD: 10.7 ± 1.0 days
Lymphatic leukemia P388; [13]
  ILS: −5%
  MST ± SD: 9.5 ± 0.8 days
Lymphatic leukemia P388; [14]
  ILS: 17%
  MST ± SD: 11.7 ± 1.9 days
Lymphatic leukemia P388; [15]
  ILS: 7%
  MST ± SD: 10.7 ± 0.9 days
Lymphatic leukemia P388; [16]
  ILS: 5%
  MST ± SD: 10.5 ± 1.2 days
Lymphatic leukemia P388
  antileukemia / antitumor effect (in words): did not display antitumor effect
[4]
  IC50: 84.3 ± 7.2 µM
[5]
  IC50: > 100 µM
  SI (selectivity index) HuTu 80: - ((-)—no selectivity)

## Nc1ncnc2c1ncn2CCS(=O)(=O)N1CCCC1N1C(=O)CCN1c1ccccc1 (stereo not drawn) [Compound 4c, 2-(1-((2-(6-Amino-9H-purin-9-yl)ethyl)sulfonyl)pyrrolidin-2-yl)-1-phenylpyrazolidin-3-one]
[2]
  IC50: > 100 µM
  SI (selectivity index) M-HeLa: - ((-)—no selectivity)
[4]
  IC50: 100 µM
[5]
  IC50: > 100 µM
  SI (selectivity index) HuTu 80: - ((-)—no selectivity)

## O=C(O)[C@@H](NCCS(=O)(=O)N1CCCC1P(=O)(c1ccccc1)c1ccccc1)c1c[nH]c2ccccc12 (stereo partly drawn) [Compound 4x, (2S)-2-((2-((2-(Diphenylphosphoryl)pyrrolidin-1-yl)sulfonyl)ethyl)amino)-2-(1H-indol-3-yl)acetic acid]
[2]
  IC50: 98.2 ± 8.3 µM
  SI (selectivity index) M-HeLa: 1.3
[4]
  IC50: 128 ± 10 µM
[5]
  IC50: > 100 µM

## COc1cccc2c1C(=O)c1c(O)c3c(c(O)c1C2=O)C[C@@](O)(C(=O)CO)C[C@@H]3O[C@H]1C[C@H](N)[C@H](O)[C@H](C)O1 [Doxorubicin, reference compound]
[1]
  IC50: 3.3 ± 6.6 µM
[3]
  SI (selectivity index) HL-60: 1.1
  IC50: 3 ± 4.7 µM

## Cc1c(C2CCCN2S(=O)(=O)CCNCC(=O)O)c(=O)n(-c2ccccc2)n1C (stereo not drawn) [Compound 4m, (2-((2-(1,5-Dimethyl-3-oxo-2-phenyl-2,3-dihydro-1H-pyrazol-4-yl)pyrrolidin-1-yl)sulfonyl)ethyl)glycine]
[2]
  IC50: > 100 µM
[4]
  IC50: > 100 µM
[5]
  IC50: 87 ± 7 µM
  SI (selectivity index) HuTu 80: >1.1

## O=C(O)CNCCS(=O)(=O)N1CCCC1P(=O)(c1ccccc1)c1ccccc1 (stereo not drawn) [Compound 4v, 2-((2-((2-(Diphenylphosphoryl)pyrrolidin-1-yl)sulfonyl)ethyl)amino)acetic acid]
[2]
  IC50: 96.2 ± 8.4 µM
  SI (selectivity index) M-HeLa: 2.2
[4]
  IC50: 211 ± 17 µM
[5]
  IC50: > 100 µM

## Nc1ncnc2c1ncn2CCS(=O)(=O)N1CCCC1P(=O)(c1ccccc1)c1ccccc1 (stereo not drawn) [Compound 4u, (1-((2-(6-Amino-9H-purin-9-yl)ethyl)sulfonyl)pyrrolidin-2-yl)diphenylphosphine oxide]
[2]
  IC50: > 100 µM
[4]
  IC50: > 100 µM
[5]
  IC50: > 100 µM
